# Results as given in USRE43327E1, “Hydrophobic polyamine analogs and methods for their use” (Aminex Therapeutics, Inc., priority 2001, dated 2012).
# Values joined by “and” are separate entries in the source; they are usually repeats but may differ in a detail not shown here. Equal values may be shown once. Read-outs that look alike come from different tables or passages of the source.
# Assays:
# [1] = system: 4 cell lines (A375, MDA-MB-231, PC-3, SK-OV-3); experiment: Growth inhibition with DFMO, average over 4 cell lines; assay type: cell-based; settings: Table 3; average over cell lines, with DFMO; read-out: AVG. EC50
# Method: Cells were plated in 96-well plates such that they would be in log growth for the duration of the assay. The day after plating, PAs were added to the cells, and growth, if any, permitted to continue for six days in the presence of 1 mM AG and 0.5 μM SPD to insure that any growth inhibition was not the result of depletion of external polyamines in the media. At the end of the six days, cell growth was measured by MTS/PMS dye assay (Cell Titer 96 Aqueous Non-Radioactive Cell Proliferation Assay; Promega, Madison, Wis.).
# PC-3 [2] = experiment: Growth inhibition assay, PA alone, PC-3; assay type: cell-based; settings: PA alone (no DFMO), six days, repeat determinations, read-out: Cell Line IC50 PC-3
# Method: (§1) Medias were obtained from Mediatech, Inc. (Herdon, Va.) and serums from Gibco BRL (Gaithersburg, Md.). 50 U/ml penicillin, 50 μg/ml streptomycin and 2 mM L-glutamine (all from Bio Whittaker, Walkersville, Md.) were included in all cultures. […] When cells were cultured with polyamines or ORI compounds, 1 mM aminoguanidine (AG; Sigma) was included to inhibit serum amine oxidase activity.
# SK-OV-3 [3] = experiment: Growth inhibition assay, PA alone, SK-OV-3; assay type: cell-based; settings: PA alone (no DFMO), six days, repeat determinations, read-out: Cell Line IC50 SK-OV-3
# Method: as §1
# [4] = system: polyamine transport in MDA-MB-231 cells; experiment: Polyamine transport and Ki assay (3H-spermidine uptake); assay type: cell-based; settings: 15 min 37° C., Lineweaver-Burke analysis
# Method: [2,9-^3H]spermidine (SPD) from DuPont NEN, Boston, Mass. was added alone or simultaneously with PAs to 24-well plates containing MDA-MB-23 1 cells in log growth. The cells were incubated at 37° C. for 15 min to determine initial rate polyamine uptake. The cells were then washed three times with cold PBS, lysed with 0.1% SDS, and the amount of polyamine incorporation into the cells was determined by scintillation counting of the cell lysates. […] The Ki values were determined using double reciprocal Lineweaver-Burke plot analyses. Ki values were determined from linear equations derived from graphing the slopes of Lineweaver-Burke plot vs. inhibitor concentration, with Ki=y-intercept/slope.
# SK-OV-3 [5] = experiment: Growth inhibition assay (MTS/PMS) with DFMO, SK-OV-3; assay type: cell-based; settings: in the presence of DFMO (1-5 mM), 1 mM AG, 0.5 μM SPD, six days; repeat determinations; read-out: Cell Line EC50 SK-OV-3
# Method: as §1
# MDA-MB-231 [6] = experiment: Growth inhibition assay (MTS/PMS) with DFMO, MDA-MB-231; assay type: cell-based; settings: in the presence of DFMO (1-5 mM), 1 mM AG, 0.5 μM SPD, six days; repeat determinations; read-out: Cell Line EC50 MDA-MB-231
# Method: as §1
# PC-3 [7] = experiment: Growth inhibition assay (MTS/PMS) with DFMO, PC-3; assay type: cell-based; settings: in the presence of DFMO (1-5 mM), 1 mM AG, 0.5 μM SPD, six days; repeat determinations; read-out: Cell Line EC50 PC-3
# Method: as §1
# MDA-MB-231 [8] = experiment: Growth inhibition assay, PA alone, MDA-MB-231; assay type: cell-based; settings: PA alone (no DFMO), six days; repeat determinations; read-out: Cell Line IC50 MDA-MB-231
# Method: as §1
# A375 [9] = experiment: Growth inhibition assay, PA alone, A375; assay type: cell-based; settings: PA alone (no DFMO), six days, repeat determinations, read-out: Cell Line IC50 A375
# Method: as §1
# A375 [10] = experiment: Growth inhibition assay (MTS/PMS) with DFMO, A375; assay type: cell-based; settings: in the presence of DFMO (1-5 mM), 1 mM AG, 0.5 μM SPD, six days; repeat determinations; read-out: Cell Line EC50 A375
# Method: as §1
# [11] = amino acid side chain, un-ionized fraction; Wolfenden 1981; cited from earlier work
EC50 [1],IC50 (PC-3 [2]),IC50 (SK-OV-3 [3]),EC50 (SK-OV-3 [5]),EC50 (MDA-MB-231 [6]),EC50 (PC-3 [7]),IC50 (MDA-MB-231 [8]),"IC50 (A375 [9]; Homo sapiens, A-375, 144 h)","IC50 (PC-3 [2]; Homo sapiens, PC-3, 144 h)","IC50 (SK-OV-3 [3]; Homo sapiens, SK-OV-3, 144 h)",EC50 (A375 [10]),IC50 (A375 [9]),Compound,Ki [4],free energy for the transfer from the vapor phase to H2O (hydration potential) [11]
583 nM,> 30000 nM,> 30000 nM,1570 nM,491 nM,99 nM,> 30000 nM,,,,170 nM,> 30000 nM,CCCCCCCC/C=C\CCCCCCCC(=O)NCCCC[C@@H](N)C(=O)NCCCNCCCCNCCCN [IIIB1],54 nM,
395 nM,> 100000 nM,> 100000 nM,240 nM,510 nM,290 nM,> 100000 nM,,,,540 nM,> 100000 nM,CCCCCCCNCCCC[C@H](N)C(=O)NCCCNCCCCNCCCN [IVA6],,
39 nM,> 3000 nM,> 3000 nM,81 nM,19 nM,46 nM,> 3000 nM,,,,10 nM,> 3000 nM,CCCCCCCCCCCCCCCCNCCCC[C@H](N)C(=O)NCCCNCCCCNCCCN [IVA11],,
1010 nM,> 100000 nM,> 100000 nM,937 nM,1660 nM,711 nM,> 100000 nM,,,,739 nM,> 100000 nM,CC(C)(C)CCNCCCC[C@H](N)C(=O)NCCCNCCCCNCCCN [IVA22],,
1900 nM,> 100000 nM,> 100000 nM,2300 nM,3550 nM,710 nM,> 100000 nM,,,,1040 nM,> 100000 nM,NCCCNCCCCNCCCNC(=O)[C@@H](N)CCCCNCC1CC2C=CC1C2 (some centres unmarked) [IVA25],,
3410 nM,> 100000 nM,> 100000 nM,7560 nM and 6070 nM,1990 nM,910 nM and 1530 nM,> 100000 nM,,,,2400 nM,> 100000 nM,NCCCNCCCCNCCCNC(=O)[C@H](N)CCCCNCC1CC2CCC1C2 (some centres unmarked) [IVB26],,
5090 nM,> 100000 nM,67700 nM,9500 nM,8030 nM,1880 nM,> 100000 nM,,,,940 nM,67900 nM,CCCCCCCNCCCC[C@@H](NCCCCCCC)C(=O)NCCCNCCCCNCCCN [IVF6],,
1800 nM,> 100000 nM,> 100000 nM,2160 nM,2340 nM,500 nM,> 100000 nM,,,,2180 nM,> 100000 nM,NCCCNCCCCNCCCNC(=O)[C@@H](CCCCNCC1CCCCC1)NCC1CCCCC1 [IVF27],,

# Further lines, the compound ahead of its results:
Compound,EC50 [1],IC50 (PC-3 [2]),IC50 (SK-OV-3 [3]),EC50 (SK-OV-3 [5]),EC50 (MDA-MB-231 [6]),EC50 (PC-3 [7]),IC50 (MDA-MB-231 [8]),"IC50 (A375 [9]; Homo sapiens, A-375, 144 h)","IC50 (PC-3 [2]; Homo sapiens, PC-3, 144 h)","IC50 (SK-OV-3 [3]; Homo sapiens, SK-OV-3, 144 h)",EC50 (A375 [10]),IC50 (A375 [9]),Ki [4],free energy for the transfer from the vapor phase to H2O (hydration potential) [11]
CCCCCCCCCCCCCCCCCCCC(=O)NCCCC[C@H](N)C(=O)NCCCNCCCCNCCCN [IA1],17 nM,> 3000 nM,> 3000 nM,,,,,,,,,,15 nM,
CCCCCCCCCCCCCCCCCC(=O)NCCCC[C@H](N)C(=O)NCCCNCCCCNCCCN [IA2],14 nM,,,27 nM and 21 nM,,,,,,,,,1.4 nM,
CCCCCCCCCCCCCCCC(=O)NCCCC[C@H](N)C(=O)NCCCNCCCCNCCCN [IA4],77 nM,,,,,,,,,,,,1.5 nM,
NCCCNCCCCNCCCNC(=O)[C@@H](N)CCCCNC(=O)OCc1ccccc1 [IA40],,> 300000 nM,,,41300 nM and 29800 nM,8510 nM and 7870 nM,> 300000 nM,,,,,,39 nM,
CCCCCCCCCCCCCCCC(=O)NCCCC[C@@H](N)C(=O)NCCCNCCCCNCCCN [IB4],105 nM,,,,,,,,,,,,17 nM,
CCCCCCCCC(=O)NCCCC[C@@H](N)C(=O)NCCCNCCCCNCCCN [IB6],,,,,,,,> 30000 nM,> 30000 nM,> 30000 nM,,,75 nM,
CC(C)(C)OC(=O)N[C@@H](CCCCN)C(=O)NCCCNCCCCNCCCN [IC41],,430000 nM,,,36900 nM,16900 nM,> 300000 nM,,,,,,191 nM,
CCCCCCCCCCCCCCCCS(=O)(=O)NCCCC[C@H](N)C(=O)NCCCNCCCCNCCCN [IIA10],72 nM,,,98 nM and 83 nM and 80 nM,,,,,,,16 nM and 10 nM and 9 nM,,4 nM,
CCCCCCCCCCCCCCCCS(=O)(=O)NCCCC[C@@H](N)C(=O)NCCCNCCCCNCCCN [IIB10],110 nM,22000 nM and 19900 nM,18100 nM and 23100 nM,134 nM and 224 nM,169 nM,99 nM and 74 nM,> 30000 nM,,,,26 nM and 44 nM,18000 nM and 17700 nM,2 nM,
[HH] [hydrogen],,,,,,,,,,,,,,2.39 kcal/mol
C [methane],,,,,,,,,,,,,,1.94 kcal/mol
CCCCN [n-butylamine],,,,,,,,,,,,,,-7.00 kcal/mol
CCCNC(=N)N [n-propylguanidine],,,,,,,,,,,,,,-14.6 kcal/mol
